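Protocol summary: plate cells (96-well), add compound at 5 concentrations, incubate 48 h, interpolate endpoints linearly. Definition used: TGI = concentration required for complete inhibition of growth.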

The record followed here is PubChem BioAssay (NCI).

Test systems include 786-0 renal; COLO 205 colon; HCT-15 colon; HOP-62 NSCLC; HT29 colon; KM12 colon; M14 melanoma; MDA-MB-231 breast; MDA-N; MOLT-4 leukemia; NCI-H522 lung; OVCAR-3 ovarian; RPMI-8226 leukemia; SK-MEL-2 melanoma; SK-MEL-5 melanoma; SR leukemia; T-47D breast; UACC-62 melanoma.
Assay in all cases: NCI tumour cell line growth inhibition, 48 h

On to `NC(N)=NS(=O)(=O)c1ccc(NNC(=O)c2cccc3c(=O)c4ccccc4[nH]c23)cc1`, for which the TGI with 786-0 renal was over 100 µM; in the assay with COLO 205 colon, 54.7 µM; with HCT-15 colon it was 50.5 µM; in the assay on HOP-62 NSCLC, 73.5 µM; in the assay with HT29 colon, 41.8 µM; in the assay on KM12 colon, 57 µM. Moreover, the TGI with M14 melanoma is 34.9 µM; with MDA-MB-231 breast it was 95.2 µM; in the assay on MDA-N it was 60.9 µM; in the assay on MOLT-4 leukemia, 80.9 µM; in the assay on NCI-H522 lung, 46.1 µM; with OVCAR-3 ovarian, 57.5 µM. In addition, the TGI in the assay with RPMI-8226 leukemia is over 100 µM; in the assay with SK-MEL-2 melanoma it was 63.7 µM; in the assay on SK-MEL-5 melanoma, 36.1 µM; in the assay with SR leukemia it was over 100 µM; with T-47D breast, 59.2 µM; in the assay on UACC-62 melanoma, 88.9 µM.

In the case of `CCc1cc2c(c3c1CCCC3)CC1(Cc3ccc(C(=O)OC)cc3C1)C2` (stereo not given), the TGI in the assay with 786-0 renal, with COLO 205 colon, in the assay with HCT-15 colon, in the assay with HOP-62 NSCLC, in the assay with HT29 colon and in the assay on KM12 colon was over 100 µM throughout. For the same compound, the TGI in the assay with M14 melanoma, with MDA-MB-231 breast, in the assay with MDA-N, in the assay with MOLT-4 leukemia, in the assay with NCI-H522 lung and in the assay with OVCAR-3 ovarian was over 100 µM in each case. Also, the TGI in the assay with RPMI-8226 leukemia is over 100 µM; in the assay on SK-MEL-2 melanoma, over 100 µM; with SK-MEL-5 melanoma it was over 100 µM; with SR leukemia, 85.1 µM; in the assay on T-47D breast it was over 100 µM; in the assay on UACC-62 melanoma, over 100 µM.

As for `CC(C)CCC[C@@H](C)C1CCC2[C@@H]3CCC4C[C@@H](NS(C)(=O)=O)CC[C@]4(C)C3CC[C@@]21C` (stereo not given in full), the TGI with 786-0 renal, with COLO 205 colon, in the assay on HCT-15 colon, with HOP-62 NSCLC, in the assay on HT29 colon and with KM12 colon was over 100 µM in each case. The TGI with M14 melanoma, with MDA-MB-231 breast, in the assay on MDA-N, in the assay on MOLT-4 leukemia, in the assay on NCI-H522 lung and with OVCAR-3 ovarian was over 100 µM in each case. For the same compound, the TGI in the assay with RPMI-8226 leukemia, in the assay with SK-MEL-2 melanoma, in the assay on SK-MEL-5 melanoma, with SR leukemia, in the assay with T-47D breast and in the assay on UACC-62 melanoma was over 100 µM each time.

As for `Cc1cc(S(=O)(=O)Nc2n[nH]c(Nc3ccc4ccccc4c3)n2)c(S)cc1Cl`, the TGI is over 100 µM in the assay on 786-0 renal; over 100 µM in the assay on COLO 205 colon; over 100 µM with HCT-15 colon; over 100 µM with HOP-62 NSCLC; over 100 µM in the assay with HT29 colon; 95 µM in the assay with KM12 colon. Also, the TGI in the assay with M14 melanoma is over 100 µM; in the assay with MDA-MB-231 breast, over 100 µM; in the assay with MDA-N it was 39 µM; in the assay on MOLT-4 leukemia it was over 100 µM; with NCI-H522 lung, 84.2 µM; in the assay with OVCAR-3 ovarian, 51.7 µM. Besides, the TGI in the assay with RPMI-8226 leukemia is over 100 µM; in the assay on SK-MEL-2 melanoma, 73.7 µM; in the assay with SK-MEL-5 melanoma, over 100 µM; with SR leukemia, over 100 µM; with T-47D breast, over 100 µM; in the assay on UACC-62 melanoma it was over 100 µM.

For the compound `COc1cc(C(c2cccc3ccccc23)N2C(=O)CCC2C(=O)O)cc(OC)c1OC` (stereo not given), the TGI in the assay with 786-0 renal, in the assay on COLO 205 colon, in the assay with HCT-15 colon, with HOP-62 NSCLC, in the assay with HT29 colon and in the assay on KM12 colon was over 100 µM each time. The TGI with M14 melanoma, in the assay on MDA-MB-231 breast, in the assay on MDA-N, in the assay on MOLT-4 leukemia, with NCI-H522 lung and with OVCAR-3 ovarian was over 100 µM throughout. Further, the TGI in the assay on RPMI-8226 leukemia, in the assay on SK-MEL-2 melanoma, in the assay on SK-MEL-5 melanoma, with SR leukemia, in the assay with T-47D breast and with UACC-62 melanoma was over 100 µM each time.

Take `Oc1cnc2c(O)cccc2c1`: the TGI in the assay on 786-0 renal, with HCT-15 colon, in the assay with HOP-62 NSCLC, with HT29 colon, in the assay on KM12 colon and in the assay with M14 melanoma was over 100 µM in each case. The TGI in the assay with MDA-MB-231 breast is over 100 µM; with MDA-N, over 100 µM; in the assay with MOLT-4 leukemia, over 100 µM; in the assay on NCI-H522 lung it was over 100 µM; in the assay on OVCAR-3 ovarian, 65 µM; in the assay with RPMI-8226 leukemia, over 100 µM. In addition, the TGI is over 100 µM in the assay on SK-MEL-2 melanoma, over 100 µM in the assay on SR leukemia, 91.6 µM in the assay on T-47D breast and 62.3 µM with UACC-62 melanoma.

Take `NC(=O)c1nnsc1NN=O`: the TGI with 786-0 renal, in the assay with COLO 205 colon, in the assay with HCT-15 colon, in the assay on HOP-62 NSCLC, in the assay on HT29 colon and in the assay on KM12 colon was over 100 µM each time. Also, the TGI in the assay with M14 melanoma, with MDA-MB-231 breast, with MDA-N, in the assay with MOLT-4 leukemia, with NCI-H522 lung and in the assay with RPMI-8226 leukemia was over 100 µM each time. In addition, the TGI in the assay on SK-MEL-2 melanoma, with SK-MEL-5 melanoma, with SR leukemia, in the assay with T-47D breast and in the assay with UACC-62 melanoma was over 100 µM throughout.

As to `CCN(CC)C(=S)SC1C(=O)NC(=O)NC1=O`, the TGI with 786-0 renal, in the assay on COLO 205 colon, in the assay on HCT-15 colon, with HOP-62 NSCLC, with HT29 colon and in the assay with KM12 colon was over 100 µM each time. For the same compound, the TGI in the assay with MDA-MB-231 breast, in the assay with MDA-N, with MOLT-4 leukemia, with NCI-H522 lung, in the assay with OVCAR-3 ovarian and in the assay with RPMI-8226 leukemia was over 100 µM throughout. Also, the TGI in the assay on SK-MEL-2 melanoma, with SK-MEL-5 melanoma, with SR leukemia, in the assay on T-47D breast and in the assay with UACC-62 melanoma was over 100 µM throughout.
